In the supplement of paper PMC11208160:
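Note: IS621 bridge recombinase in Escherichia coli cells against a fixed T5 target plasmid.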

Experiment: recombinant UMI read abundance after kanamycin selection (control-corrected) (log10(CPM+1)); higher = more efficient recombination; extreme values may be limits of the assay; sequences stand for … in AGTGCAGAGAAAATCGGCCAGTTTTCTCTGCCTGCAGTCCGCATGCCGTGGGACCCCTTGGGTTCTAACCTGTTGCCTAGATTTATGCAGCGGACTGCCTTTCTCCCAAAGTGATAAACCGG…AGGTTGGTTTCACT; site = the 11-nt donor
Procedure, shortened: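 After plating on IPTG (0.07 mM) plus kanamycin, or unselected, in two replicates, recombinant UMIs were PCR-amplified across the donor–target junction and sequenced. The cells were Escherichia coli co-electroporated with a UMI-tagged donor and donor-binding-loop pair library and a target plasmid with a fixed target and T7-inducible IS621 bridge recombinase. Values are log10(CPM+1), with CPM averaged over replicates and scaled by control-derived factors.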
For “GCTACCCCATGGACCGGTTTTCCCGGTAATCCGTATTTGGA (site GCTACCCCTTC)”, the “recombinant UMI read abundance (log10)” value was 0.0342.
For “GCTACCGCATGGACCGGTTTTCCCGGTAATCCGTATTTGCC (site GCTACAGCTGG)”, the “recombinant UMI read abundance (log10)” value was 0.
In the case of “GCTACCGCATGGACCGGTTTTCCCGGTAATCCGTATTTGCC (site GCTACCGCTGG)”, the “recombinant UMI read abundance (log10)” value is reported as 1.61.
In the case of “GCTACCGCATGGACCGGTTTTCCCGGTAATCCGTATTTGCC (site GCTACGGCTGG)”, the “recombinant UMI read abundance (log10)” value is reported as 0.
With “GCTACCGCATGGACCGGTTTTCCCGGTAATCCGTATTTGCC (site GCTACTGCTGG)” the “recombinant UMI read abundance (log10)” value was 0.
With “GCTACGTCATGGACCGGTTTTCCCGGTAATCCGTATTTGTT (site GATACGTCTAA)” the “recombinant UMI read abundance (log10)” value was 0.00849.
With “GCTACGTCATGGACCGGTTTTCCCGGTAATCCGTATTTGTT (site GCTACGTCTAA)” the “recombinant UMI read abundance (log10)” value was 0.808.
For “GCTACGTCATGGACCGGTTTTCCCGGTAATCCGTATTTGTT (site GGTACGTCTAA)”, the “recombinant UMI read abundance (log10)” value was 0.0111.
For “GCTACGTCATGGACCGGTTTTCCCGGTAATCCGTATTTGTT (site GTTACGTCTAA)”, the “recombinant UMI read abundance (log10)” value was 0.0153.
For “GCTACTGCATGGACCGGTTTTCCCGGTAATCCGTATTTGCT (site GCTACTGCTAG)”, the “recombinant UMI read abundance (log10)” value was 1.64.
In the case of “GCTACTGCATGGACCGGTTTTCCCGGTAATCCGTATTTGCT (site GCTACTGCTCG)”, the “recombinant UMI read abundance (log10)” value is reported as 0.00284.
In the case of “GCTACTGCATGGACCGGTTTTCCCGGTAATCCGTATTTGCT (site GCTACTGCTGG)”, the “recombinant UMI read abundance (log10)” value is reported as 0.
For “GCTACTGCATGGACCGGTTTTCCCGGTAATCCGTATTTGCT (site GCTACTGCTTG)”, the “recombinant UMI read abundance (log10)” value was 0.
For “GCTAGTGCATGGACCGGTTTTCCCGGTAATCCGTATTTGGT (site ACTAGTGCTAC)”, the “recombinant UMI read abundance (log10)” value was 1.31.
With “GCTAGTGCATGGACCGGTTTTCCCGGTAATCCGTATTTGGT (site CCTAGTGCTAC)” the “recombinant UMI read abundance (log10)” value was 1.65.
With “GCTAGTGCATGGACCGGTTTTCCCGGTAATCCGTATTTGGT (site GCTAGTGCTAC)” the “recombinant UMI read abundance (log10)” value was 1.73.
For “GCTAGTGCATGGACCGGTTTTCCCGGTAATCCGTATTTGGT (site TCTAGTGCTAC)”, the “recombinant UMI read abundance (log10)” value was 0.581.
For “GCTATGGCATGGACCGGTTTTCCCGGTAATCCGTATTTGAA (site GCTATGGCTTT)”, the “recombinant UMI read abundance (log10)” value was 1.55.
In the case of “GCTCCAACATGGACCGGTTTTCCCGGTAATCCGTATTTGAA (site GCTCCAACTTT)”, the “recombinant UMI read abundance (log10)” value is reported as 0.939.
For “GCTCCAACATGGACCGGTTTTCCCGGTAATCCGTATTTGTA (site GATCCAACTTA)”, the “recombinant UMI read abundance (log10)” value was 0.0429.
In the case of “GCTCCAACATGGACCGGTTTTCCCGGTAATCCGTATTTGTA (site GCTCCAACTTA)”, the “recombinant UMI read abundance (log10)” value is reported as 0.877.
In the case of “GCTCCAACATGGACCGGTTTTCCCGGTAATCCGTATTTGTA (site GGTCCAACTTA)”, the “recombinant UMI read abundance (log10)” value is reported as 0.0155.
With “GCTCCAACATGGACCGGTTTTCCCGGTAATCCGTATTTGTA (site GTTCCAACTTA)” the “recombinant UMI read abundance (log10)” value was 0.481.
In the case of “GCTCCGACATGGACCGGTTTTCCCGGTAATCCGTATTTGGA (site GCTCCGACTTC)”, the “recombinant UMI read abundance (log10)” value is reported as 0.0323.
For “GCTCGATCATGGACCGGTTTTCCCGGTAATCCGTATTTGGA (site GCTCGATCTTC)”, the “recombinant UMI read abundance (log10)” value was 1.99.
With “GCTCGTCCATGGACCGGTTTTCCCGGTAATCCGTATTTGAG (site GCTCGTCCTCT)” the “recombinant UMI read abundance (log10)” value was 0.0111.
With “GCTCGTTCATGGACCGGTTTTCCCGGTAATCCGTATTTGAT (site GCTCGTTCTAT)” the “recombinant UMI read abundance (log10)” value was 1.25.
For “GCTCTGTCATGGACCGGTTTTCCCGGTAATCCGTATTTGTT (site GCTCTGTCTAA)”, the “recombinant UMI read abundance (log10)” value was 1.59.
In the case of “GCTGAATCATGGACCGGTTTTCCCGGTAATCCGTATTTGCA (site GCTGAATCTTG)”, the “recombinant UMI read abundance (log10)” value is reported as 1.83.
For “GCTGACGCATGGACCGGTTTTCCCGGTAATCCGTATTTGAT (site GCTGACGCTAT)”, the “recombinant UMI read abundance (log10)” value was 1.53.
With “GCTGCCTCATGGACCGGTTTTCCCGGTAATCCGTATTTGGT (site GCTGCCTCTAC)” the “recombinant UMI read abundance (log10)” value was 0.342.
With “GCTGGTTCATGGACCGGTTTTCCCGGTAATCCGTATTTGTC (site GCTGGTTCTGA)” the “recombinant UMI read abundance (log10)” value was 0.00915.
With “GCTTATACATGGACCGGTTTTCCCGGTAATCCGTATTTGCT (site GCTTATACTAG)” the “recombinant UMI read abundance (log10)” value was 0.
In the case of “GCTTGCCCATGGACCGGTTTTCCCGGTAATCCGTATTTGAG (site GCTTGCCCTAT)”, the “recombinant UMI read abundance (log10)” value is reported as 0.0201.
With “GCTTGCCCATGGACCGGTTTTCCCGGTAATCCGTATTTGAG (site GCTTGCCCTCT)” the “recombinant UMI read abundance (log10)” value was 0.0701.
For “GCTTGCCCATGGACCGGTTTTCCCGGTAATCCGTATTTGAG (site GCTTGCCCTGT)”, the “recombinant UMI read abundance (log10)” value was 0.
With “GCTTGCCCATGGACCGGTTTTCCCGGTAATCCGTATTTGAG (site GCTTGCCCTTT)” the “recombinant UMI read abundance (log10)” value was 0.107.
